Source: publication PMC7982320 (Pharmacology Research & Perspectives, 2021)
pIC50: −log10 of the molar value. Entries after “also recorded” stand apart in the source; their conditions may differ.

Key:
[1] = combined DMD patient populations, DFZ 0.9 mg/kg/day; ref PTC internal data; cited from earlier work
[2] = target: T1, human OATP1B1 (Homo sapiens, UniProt Q9Y6L6); assay: Transporter inhibition, uptake assay; assay type: in vitro ADME
T1 sequence (Q9Y6L6 1-691): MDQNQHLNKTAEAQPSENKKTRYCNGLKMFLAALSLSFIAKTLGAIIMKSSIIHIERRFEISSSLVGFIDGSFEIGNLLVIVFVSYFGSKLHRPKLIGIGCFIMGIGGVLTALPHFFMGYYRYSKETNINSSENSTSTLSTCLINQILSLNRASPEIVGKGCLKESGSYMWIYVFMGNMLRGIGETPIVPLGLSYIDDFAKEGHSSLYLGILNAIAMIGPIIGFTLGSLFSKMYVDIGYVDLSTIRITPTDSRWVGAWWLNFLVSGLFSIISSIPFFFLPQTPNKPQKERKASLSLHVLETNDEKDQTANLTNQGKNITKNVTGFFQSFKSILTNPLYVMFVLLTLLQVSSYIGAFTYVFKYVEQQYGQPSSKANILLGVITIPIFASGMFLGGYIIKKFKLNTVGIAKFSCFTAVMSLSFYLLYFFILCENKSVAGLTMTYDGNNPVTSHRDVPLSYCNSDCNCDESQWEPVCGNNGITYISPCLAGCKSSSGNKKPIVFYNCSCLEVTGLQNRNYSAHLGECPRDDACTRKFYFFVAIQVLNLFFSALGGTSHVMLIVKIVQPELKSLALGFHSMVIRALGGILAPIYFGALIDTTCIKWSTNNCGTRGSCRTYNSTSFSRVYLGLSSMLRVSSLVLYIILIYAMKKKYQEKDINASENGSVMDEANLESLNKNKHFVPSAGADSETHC

[3] = healthy male subjects, single oral dose of 60 mg 14C‐DFZ; cited from earlier work
[4] = system: CYP isoforms (1A2, 2B6, 2C8, 2C9, 2C19, 2D6, 3A4); assay: Time‐dependent and mechanism‐based CYP inhibition; assay type: in vitro ADME, human; conditions: 30 min preincubation in absence and presence of NADPH
[5] = target: T2, human BCRP (Homo sapiens, UniProt Q9UNQ0); assay: Transporter inhibition, vesicular transport assay; assay type: in vitro ADME
T2 sequence (Q9UNQ0 1-655): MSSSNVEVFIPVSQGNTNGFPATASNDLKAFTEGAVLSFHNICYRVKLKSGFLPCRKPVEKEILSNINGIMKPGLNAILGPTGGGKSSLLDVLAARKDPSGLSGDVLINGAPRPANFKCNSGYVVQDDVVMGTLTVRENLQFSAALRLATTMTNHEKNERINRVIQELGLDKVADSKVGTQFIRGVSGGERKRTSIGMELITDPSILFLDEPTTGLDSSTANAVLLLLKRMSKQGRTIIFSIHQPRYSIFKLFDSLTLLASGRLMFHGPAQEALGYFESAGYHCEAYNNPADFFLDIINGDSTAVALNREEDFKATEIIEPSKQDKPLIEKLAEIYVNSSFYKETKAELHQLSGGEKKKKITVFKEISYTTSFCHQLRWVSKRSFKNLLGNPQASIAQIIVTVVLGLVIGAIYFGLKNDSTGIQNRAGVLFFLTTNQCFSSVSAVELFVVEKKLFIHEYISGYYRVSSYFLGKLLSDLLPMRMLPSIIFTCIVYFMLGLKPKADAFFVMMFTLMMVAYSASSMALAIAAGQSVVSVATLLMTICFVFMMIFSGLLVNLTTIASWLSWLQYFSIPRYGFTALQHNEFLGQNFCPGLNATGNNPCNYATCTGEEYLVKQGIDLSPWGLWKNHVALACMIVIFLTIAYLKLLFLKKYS

[6] = target: CYP2C8 (Homo sapiens, UniProt P10632); assay: CYP inhibition in pooled human liver microsomes, paclitaxel probe; assay type: in vitro ADME; conditions: read-out: IC50, No preincubation; CYP2C8, pooled HLMs, n = 3
CYP2C8, sequence (P10632 whole entry): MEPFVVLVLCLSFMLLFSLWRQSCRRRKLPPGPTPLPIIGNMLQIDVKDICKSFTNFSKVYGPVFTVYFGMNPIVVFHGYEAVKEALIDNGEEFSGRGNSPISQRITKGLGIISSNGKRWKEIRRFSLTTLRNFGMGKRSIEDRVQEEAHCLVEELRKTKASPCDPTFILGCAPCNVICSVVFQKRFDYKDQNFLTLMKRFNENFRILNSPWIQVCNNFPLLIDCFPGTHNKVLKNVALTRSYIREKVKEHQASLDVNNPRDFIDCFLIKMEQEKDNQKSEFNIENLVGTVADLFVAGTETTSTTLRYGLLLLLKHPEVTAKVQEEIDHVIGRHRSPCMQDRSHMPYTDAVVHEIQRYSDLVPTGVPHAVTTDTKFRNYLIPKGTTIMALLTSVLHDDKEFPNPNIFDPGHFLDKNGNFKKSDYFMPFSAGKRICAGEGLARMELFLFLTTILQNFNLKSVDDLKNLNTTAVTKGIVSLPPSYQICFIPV

[7] = target: human MDR1 (Homo sapiens, UniProt P08183); assay: Transporter inhibition, vesicular transport assay; assay type: in vitro ADME
human MDR1, sequence (P08183 whole entry): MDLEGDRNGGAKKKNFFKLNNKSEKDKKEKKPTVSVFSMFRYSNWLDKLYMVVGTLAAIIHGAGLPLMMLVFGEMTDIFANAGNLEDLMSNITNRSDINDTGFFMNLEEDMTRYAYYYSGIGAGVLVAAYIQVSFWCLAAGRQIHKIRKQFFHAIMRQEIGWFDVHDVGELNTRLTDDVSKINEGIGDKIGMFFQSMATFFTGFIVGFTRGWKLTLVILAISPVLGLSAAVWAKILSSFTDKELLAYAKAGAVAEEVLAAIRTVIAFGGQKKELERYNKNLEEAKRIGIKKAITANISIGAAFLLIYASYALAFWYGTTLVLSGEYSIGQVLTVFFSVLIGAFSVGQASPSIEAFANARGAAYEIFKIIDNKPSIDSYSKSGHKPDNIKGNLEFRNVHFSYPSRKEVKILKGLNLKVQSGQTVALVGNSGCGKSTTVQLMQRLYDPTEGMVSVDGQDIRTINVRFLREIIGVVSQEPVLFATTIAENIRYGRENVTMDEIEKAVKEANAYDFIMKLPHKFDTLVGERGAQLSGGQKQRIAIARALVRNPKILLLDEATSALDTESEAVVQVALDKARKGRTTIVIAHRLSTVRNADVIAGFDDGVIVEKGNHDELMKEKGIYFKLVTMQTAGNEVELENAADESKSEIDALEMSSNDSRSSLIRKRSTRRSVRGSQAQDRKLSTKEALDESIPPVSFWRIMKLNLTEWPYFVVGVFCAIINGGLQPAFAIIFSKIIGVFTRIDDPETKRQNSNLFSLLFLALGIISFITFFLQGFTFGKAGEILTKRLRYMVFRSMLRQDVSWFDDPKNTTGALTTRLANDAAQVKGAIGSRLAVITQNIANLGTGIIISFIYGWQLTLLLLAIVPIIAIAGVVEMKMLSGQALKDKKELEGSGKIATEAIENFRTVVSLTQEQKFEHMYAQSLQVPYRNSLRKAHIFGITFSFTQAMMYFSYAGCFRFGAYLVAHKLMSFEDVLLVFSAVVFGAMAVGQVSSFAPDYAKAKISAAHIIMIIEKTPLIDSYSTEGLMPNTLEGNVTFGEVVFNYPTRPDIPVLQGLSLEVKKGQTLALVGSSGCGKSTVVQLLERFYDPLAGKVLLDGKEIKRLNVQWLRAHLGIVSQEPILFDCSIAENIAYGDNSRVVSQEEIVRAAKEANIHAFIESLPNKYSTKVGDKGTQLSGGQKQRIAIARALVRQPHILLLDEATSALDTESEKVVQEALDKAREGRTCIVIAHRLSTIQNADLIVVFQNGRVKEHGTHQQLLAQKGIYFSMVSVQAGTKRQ

[8] = target: T3, human OATP1B3 (Homo sapiens, UniProt Q9NPD5); assay: Transporter inhibition, uptake assay; assay type: in vitro ADME
T3 sequence (Q9NPD5 1-702): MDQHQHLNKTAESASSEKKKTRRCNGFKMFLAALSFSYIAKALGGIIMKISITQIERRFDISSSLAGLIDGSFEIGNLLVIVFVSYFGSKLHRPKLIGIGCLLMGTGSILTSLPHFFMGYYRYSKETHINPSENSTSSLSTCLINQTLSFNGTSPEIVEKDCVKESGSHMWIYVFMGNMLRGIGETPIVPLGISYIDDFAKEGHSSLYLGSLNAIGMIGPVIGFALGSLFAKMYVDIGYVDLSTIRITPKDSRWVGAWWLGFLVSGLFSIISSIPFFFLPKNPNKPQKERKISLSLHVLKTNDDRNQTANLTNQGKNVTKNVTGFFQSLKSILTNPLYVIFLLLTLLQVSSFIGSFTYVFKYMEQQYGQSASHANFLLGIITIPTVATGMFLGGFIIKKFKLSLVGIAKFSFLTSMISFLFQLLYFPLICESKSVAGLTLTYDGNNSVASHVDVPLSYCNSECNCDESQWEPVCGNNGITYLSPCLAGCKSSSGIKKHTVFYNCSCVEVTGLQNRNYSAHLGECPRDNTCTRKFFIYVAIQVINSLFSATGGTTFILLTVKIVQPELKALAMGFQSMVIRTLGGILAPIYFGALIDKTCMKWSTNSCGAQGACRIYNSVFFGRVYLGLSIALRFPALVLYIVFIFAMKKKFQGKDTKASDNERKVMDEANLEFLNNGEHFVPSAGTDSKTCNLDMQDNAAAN

[9] = target: CYP2B6 (Homo sapiens, UniProt P20813); assay type: in vitro ADME; conditions: read-out: IC50, No preincubation; CYP2B6, pooled HLMs, n = 3
CYP2B6, sequence (P20813 whole entry): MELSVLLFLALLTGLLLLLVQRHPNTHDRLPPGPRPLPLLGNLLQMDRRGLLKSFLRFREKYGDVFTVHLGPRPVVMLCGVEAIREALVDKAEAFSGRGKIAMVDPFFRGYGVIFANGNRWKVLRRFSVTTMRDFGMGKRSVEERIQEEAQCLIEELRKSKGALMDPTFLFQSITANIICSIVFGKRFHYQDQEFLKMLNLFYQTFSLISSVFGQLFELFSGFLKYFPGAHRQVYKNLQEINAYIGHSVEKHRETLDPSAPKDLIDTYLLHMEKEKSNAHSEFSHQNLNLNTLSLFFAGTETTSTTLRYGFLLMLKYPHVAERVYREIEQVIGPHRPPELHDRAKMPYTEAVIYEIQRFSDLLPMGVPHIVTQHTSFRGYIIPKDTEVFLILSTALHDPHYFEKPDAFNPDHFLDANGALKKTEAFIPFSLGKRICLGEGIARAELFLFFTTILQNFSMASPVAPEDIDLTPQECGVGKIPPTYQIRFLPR

[10] = target: human MATE2‐K (Homo sapiens, UniProt Q86VL8); assay: Transporter inhibition, uptake assay; assay type: in vitro ADME
human MATE2‐K, sequence (Q86VL8 1-566 isoform Q86VL8-3): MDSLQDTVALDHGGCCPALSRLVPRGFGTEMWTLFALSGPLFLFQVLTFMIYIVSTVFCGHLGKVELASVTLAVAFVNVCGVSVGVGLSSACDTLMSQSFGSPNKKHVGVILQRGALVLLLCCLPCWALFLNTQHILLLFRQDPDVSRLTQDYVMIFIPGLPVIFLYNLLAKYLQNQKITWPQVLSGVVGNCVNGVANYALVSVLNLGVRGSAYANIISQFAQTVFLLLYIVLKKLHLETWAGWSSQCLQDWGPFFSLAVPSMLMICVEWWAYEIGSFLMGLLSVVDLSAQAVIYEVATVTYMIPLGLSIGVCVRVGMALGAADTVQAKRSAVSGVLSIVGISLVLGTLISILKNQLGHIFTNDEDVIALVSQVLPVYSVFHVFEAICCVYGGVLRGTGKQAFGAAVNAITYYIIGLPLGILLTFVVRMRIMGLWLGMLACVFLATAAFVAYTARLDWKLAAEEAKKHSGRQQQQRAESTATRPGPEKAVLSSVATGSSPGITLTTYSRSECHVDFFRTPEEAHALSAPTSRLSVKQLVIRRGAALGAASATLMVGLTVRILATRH

[11] = target: CYP2C9 (Homo sapiens, UniProt P11712); assay: CYP inhibition in pooled human liver microsomes, diclofenac probe; assay type: in vitro ADME; conditions: read-out: IC50, No preincubation; CYP2C9, pooled HLMs, n = 3
CYP2C9, sequence (P11712 whole entry): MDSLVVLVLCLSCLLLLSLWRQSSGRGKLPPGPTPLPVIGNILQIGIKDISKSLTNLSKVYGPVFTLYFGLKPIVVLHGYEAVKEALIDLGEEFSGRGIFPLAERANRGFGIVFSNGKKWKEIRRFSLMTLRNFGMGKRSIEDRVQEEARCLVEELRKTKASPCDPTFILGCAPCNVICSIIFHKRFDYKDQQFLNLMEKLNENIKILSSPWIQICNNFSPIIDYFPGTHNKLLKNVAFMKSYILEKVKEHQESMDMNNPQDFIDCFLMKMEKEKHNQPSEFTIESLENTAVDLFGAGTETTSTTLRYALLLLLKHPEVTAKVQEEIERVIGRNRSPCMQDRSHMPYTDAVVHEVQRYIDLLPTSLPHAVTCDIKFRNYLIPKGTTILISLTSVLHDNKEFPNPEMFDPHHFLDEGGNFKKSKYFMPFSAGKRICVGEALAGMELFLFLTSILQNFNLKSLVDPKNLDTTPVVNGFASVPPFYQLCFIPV

In the case of CC1=N[C@]2(C(=O)CO)[C@@H](C[C@H]3[C@@H]4C[C@@H](O)C5=CC(=O)C=C[C@]5(C)[C@H]4[C@@H](O)C[C@@]32C)O1 [6β‐OH‐21‐desDFZ, 6β‐Hydroxy‐21‐desacetyl deflazacort], the “plasma Cmax at steady state, mean value” [1] is given as 142 ng/mL, the “estimated plasma Cmax/IC50 ratio” value ([2]; OATP1B1, Cmax 0.34 µM, assumed 100% free) is given as 0.009 and the “Maximum inhibition at 50 µM” value ([2]; OATP1B1 UPT, n = 3) is given as 67 % of control. The pIC50 ([2]; OATP1B1 UPT, brackets: 95% confidence interval) was 4.44, the “share of 0–24 h plasma levels of total radioactivity” value [3] was 25% and the “time‐dependent or mechanism‐based inhibition (IC50 shift)” value [4] was “neither time‐dependent nor metabolism‐based; also recorded: did not appear to be a time‐dependent or mechanism‐based inhibitor”. For the same compound, the “Maximum inhibition at 50 µM” value ([5]; BCRP VT, n = 3) was <20 % of control, the “inhibitory interaction with transporter” value ([5]; BCRP, up to 50 µM) was “no inhibitory interaction” and the pIC50 [6] was under 4.30. For the same compound, the “estimated plasma Cmax/IC50 ratio” value ([7]; MDR1, Cmax 0.34 µM, assumed 100% free) was 0.017, the “Maximum inhibition at 50 µM” value ([7]; MDR1 VT, n = 3) was 78 % of control and the “estimated plasma Cmax/IC50 ratio” value ([8]; OATP1B3, Cmax 0.34 µM, assumed 100% free) was 0.008. The “Maximum inhibition at 50 µM” value ([8]; OATP1B3 UPT, n = 3) was 57 % of control, the pIC50 ([8]; OATP1B3 UPT, brackets: 95% confidence interval) was 4.37 and the pIC50 [9] was under 4.30. For the same compound, the “Maximum inhibition at 50 µM” value ([10]; MATE2‐K UPT, n = 3) was 26 % of control, the “inhibitory interaction with transporter” value ([10]; MATE2‐K, up to 50 µM) was “no inhibitory interaction” and the pIC50 [11] was under 4.30.
